Experimental data published in patent US20130109682A1, “CYCLIC ETHER COMPOUNDS USEFUL AS KINASE INHIBITORS” (NOVARTIS AG, priority 2010, published 2013).

Experiments:
Type in all cases: biochemical
PIM1 [1] = target: T1, PIM1 (Homo sapiens, UniProt P11309); experiment: KinaseGlo Pim1 ATP depletion assay
Method in brief: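 2.5 nM PIM1 preincubated 15 min with compound and 40 μM BAD peptide in 50 mM HEPES pH 7.5, 5 mM MgCl2, 1 mM DTT, 0.05% BSA, 2.5% DMSO. The reaction was started with 20 μM ATP (final) and run to about 50% ATP depletion. Remaining ATP read by KinaseGlo Plus luminescence to give IC50.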

PIM2 = PIM2 (Homo sapiens, UniProt Q9P1W9); experiment: KinaseGlo Pim2 ATP depletion assay
PIM2, sequence (Q9P1W9 whole entry): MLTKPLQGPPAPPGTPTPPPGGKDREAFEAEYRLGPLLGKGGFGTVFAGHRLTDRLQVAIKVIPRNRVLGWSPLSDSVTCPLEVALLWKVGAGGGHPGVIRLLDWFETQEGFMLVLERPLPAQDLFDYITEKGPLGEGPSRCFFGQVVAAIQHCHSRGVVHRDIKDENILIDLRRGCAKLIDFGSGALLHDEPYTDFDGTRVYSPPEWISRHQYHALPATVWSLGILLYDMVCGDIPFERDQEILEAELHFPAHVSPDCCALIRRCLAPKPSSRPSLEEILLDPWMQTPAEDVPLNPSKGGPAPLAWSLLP
Method in brief: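 Luminescent ATP-depletion read-out of PIM2 phosphorylating BAD peptide (RSRHSSYPAGT-OH). Final conditions: 5 nM PIM2, 4 μM ATP, 10 μM peptide, 2.5% DMSO in 50 mM HEPES pH 7.5, 5 mM MgCl2, 1 mM DTT, 0.05% BSA. Enzyme–peptide preincubated 15 min with compound; reaction run to ~50% ATP depletion.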

PIM3 [2] = target: T2, PIM3 (Homo sapiens, UniProt Q86V86); experiment: KinaseGlo Pim3 ATP depletion assay
Method in brief: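 Kinase was preincubated 15 min with BAD peptide in HEPES pH 7.5/MgCl2/DTT/BSA before ATP was added. Final concentrations were 40 μM ATP, 100 μM BAD peptide and 2.5% DMSO, with 5 nM enzyme. The reaction ran to ~50% ATP depletion and remaining ATP was read by KinaseGlo Plus luminescence.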

PIM1 [3] = target: T1, PIM1; experiment: Pim 1 AlphaScreen assay (high ATP); settings: read-out: Pim1 IC50
Method in brief: (§1)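 This is a bead-based AlphaScreen run at high ATP (11-125× Km) with biotin-Bad peptide (100 nM in the substrate mix), in 50 mM Hepes pH 7.5, 5 mM MgCl2, 0.05% BSA, 0.01% Tween-20, 1 mM DTT and 2.5% DMSO final. After ~2 h the reaction was stopped with EDTA. Phospho-peptide was detected overnight with anti-phospho Ser/Thr antibody on Protein A and streptavidin beads, giving IC50.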

PIM3 [4] = target: T2, PIM3; experiment: Pim 3 AlphaScreen assay (high ATP); settings: read-out: Pim3 IC50
Method in brief: as §1

T1 sequence (P11309 whole entry): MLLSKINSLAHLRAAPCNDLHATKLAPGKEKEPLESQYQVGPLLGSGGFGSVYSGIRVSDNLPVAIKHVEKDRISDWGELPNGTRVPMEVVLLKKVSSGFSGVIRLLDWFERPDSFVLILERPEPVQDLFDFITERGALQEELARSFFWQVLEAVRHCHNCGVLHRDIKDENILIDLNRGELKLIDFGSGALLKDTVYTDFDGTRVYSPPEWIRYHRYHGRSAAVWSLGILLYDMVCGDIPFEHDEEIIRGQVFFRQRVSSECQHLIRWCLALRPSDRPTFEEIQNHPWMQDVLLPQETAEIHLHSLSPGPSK

IC50 (PIM1 [1]) | IC50 (PIM2) | IC50 (PIM3 [2]) | IC50 (PIM1 [3]) | IC50 (PIM3 [4]) | Compound
0.5 nM | 2.4 nM | 2.3 nM | – | – | N[C@@H]1C[C@H](c2ccncc2NC(=O)c2ccc(F)c(-c3c(F)cccc3F)n2)O[C@@H]2CCC[C@]12O [Example 210, N-(4-((2R,4R,4aS,7aR)-4-amino-4a-hydroxyoctahydrocyclopenta[b]pyran-2-yl)pyridin-3-yl)-6-(2,6-difluorophenyl)-5-fluoropicolinamide]
– | – | – | 0.08 nM | 0.6 nM | Nc1cc(F)c(-c2c(F)cccc2F)nc1C(=O)Nc1cnccc1[C@H]1C[C@@H](N)[C@@]2(O)CCCC[C@H]2O1 [Example 238, 3-amino-N-(4-((2R,4R,4aS,8aR)-4-amino-4a-hydroxyoctahydro-2H-chromen-2-yl)pyridin-3-yl)-6-(2,6-difluorophenyl)-5-fluoropicolinamide]
– | – | – | 0.09 nM | 1.4 nM | C[C@H]1O[C@@H](c2ccncc2NC(=O)c2ccc(F)c(-c3c(F)cccc3F)n2)C[C@@H](N)[C@]1(C)O [Example 219, N-(4-((2R,4R,5S,6R)-4-amino-5-hydroxy-5,6-dimethyltetrahydro-2H-pyran-2-yl)pyridin-3-yl)-6-(2,6-difluorophenyl)-5-fluoropicolinamide]
3.9 nM | 6.3 nM | 5.8 nM | – | – | Nc1cnc(-c2c(F)cccc2F)nc1C(=O)Nc1cnccc1[C@H]1C[C@@H](N)[C@@]2(O)CCC[C@H]2O1 [Example 213, 5-amino-N-(4-((2R,4R,4aS,7aR)-4-amino-4a-hydroxyoctahydrocyclopenta[b]pyran-2-yl)pyridin-3-yl)-2-(2,6-difluorophenyl)pyrimidine-4-carboxamide]
– | – | – | 0.04 nM | 0.8 nM | COc1cc(F)c(-c2nc(C(=O)Nc3cnccc3[C@H]3C[C@@H](N)[C@](C)(O)[C@@H](C)O3)ccc2F)c(F)c1 [Example 242, N-(4-((2R,4R,5S,6R)-4-amino-5-hydroxy-5,6-dimethyltetrahydro-2H-pyran-2-yl)pyridin-3-yl)-6-(2,6-difluoro-4-methoxyphenyl)-5-fluoropicolinamide]
3.4 nM | 10.8 nM | 3.6 nM | – | – | O=C1CC[C@H]2O[C@@H](c3ccncc3NC(=O)c3ccc(F)c(-c4c(F)cccc4F)n3)C[C@@H](O)[C@@H]2N1 [Example 196, 6-(2,6-difluorophenyl)-5-fluoro-N-(4-((2R,4R,4aS,8aR)-4-hydroxy-6-oxooctahydro-2H-pyrano[3,2-b]pyridin-2-yl)pyridin-3-yl)picolinamide]
– | – | – | 0.1 nM | 4.1 nM | N[C@@H]1C[C@H](c2ccncc2NC(=O)c2ccc(F)c(-c3c(F)cccc3F)n2)O[C@@H]2CCC[C@H]12 [Example 224, N-(4-((2R,4R,4aR,7aR)-4-aminooctahydrocyclopenta[b]pyran-2-yl)pyridin-3-yl)-6-(2,6-difluorophenyl)-5-fluoropicolinamide]
– | – | – | 6.83 nM | 482 nM | N[C@H]1C[C@@H](c2ccncc2NC(=O)c2csc(-c3c(F)cccc3F)n2)O[C@H]2CCC[C@H]21 [Example 230, N-(4-((2S,4S,4aS,7aS)-4-aminooctahydrocyclopenta[b]pyran-2-yl)pyridin-3-yl)-2-(2,6-difluorophenyl)thiazole-4-carboxamide]

More lines, now with the values behind:

Compound | IC50 (PIM1 [1]) | IC50 (PIM2) | IC50 (PIM3 [2]) | IC50 (PIM1 [3]) | IC50 (PIM3 [4])
Nc1ncc(-c2ccccc2)nc1C(=O)Nc1cnccc1[C@@H]1C[C@H](O)[C@]2(O)CCCC[C@@H]2O1 [Example 176, 3-amino-N-(4-((2S,4S,4aR,8aS)-4,4a-dihydroxyoctahydro-2H-chromen-2-yl)pyridin-3-yl)-6-phenylpyrazine-2-carboxamide] | 63.8 nM | 1820 nM | 202 nM | – | –
C[C@H]1O[C@@H](c2ccncc2NC(=O)c2nc(-c3ccccc3)cnc2N)[C@H](F)[C@@H](O)[C@]1(C)O [Example 58, 3-amino-N-(4-((2S,3R,4S,5S,6R)-3-fluoro-4,5-dihydroxy-5,6-dimethyltetrahydro-2H-pyran-2-yl)pyridin-3-yl)-6-phenylpyrazine-2-carboxamide] | 9 nM | 276 nM | 27 nM | – | –
C[C@@H]1O[C@H](c2ccncc2NC(=O)c2nc(-c3ccccc3)cnc2N)C[C@H](O)[C@@]1(C)O [Example 86, 3-amino-N-(4-((2S,4S,5R,6S)-4,5-dihydroxy-5,6-dimethyltetrahydro-2H-pyran-2-yl)pyridin-3-yl)-6-phenylpyrazine-2-carboxamide] | 5 nM | 164 nM | 15 nM | – | –
Nc1ncc(-c2ccccc2)nc1C(=O)Nc1cnccc1[C@H]1C[C@@H](O)[C@@]2(O)CCC[C@H]2O1 [Example 195, 3-amino-N-(4-((2R,4R,4aS,7aR)-4,4a-dihydroxyoctahydrocyclopenta[b]pyran-2-yl)pyridin-3-yl)-6-phenylpyrazine-2-carboxamide] | 2.2 nM | 12.1 nM | 3.2 nM | – | –
C[C@H]1O[C@@H](c2ccncc2NC(=O)c2nc(-c3ccccc3)cnc2N)C[C@@H](O)[C@]1(C)O [Example 84, 3-amino-N-(4-((2R,4R,5S,6R)-4,5-dihydroxy-5,6-dimethyltetrahydro-2H-pyran-2-yl)pyridin-3-yl)-6-phenylpyrazine-2-carboxamide] | 1 nM | 33 nM | 3 nM | – | –
C[C@@H]1O[C@H](c2ccncc2NC(=O)c2nc(-c3ccccc3)cnc2N)[C@@H](F)[C@H](O)[C@@]1(C)O [Example 63, 3-amino-N-(4-((2R,3S,4R,5R,6S)-3-fluoro-4,5-dihydroxy-5,6-dimethyltetrahydro-2H-pyran-2-yl)pyridin-3-yl)-6-phenylpyrazine-2-carboxamide] | 6 nM | 924 nM | 31 nM | – | –
Nc1ncc(-c2ccccc2)nc1C(=O)Nc1cnccc1[C@H]1C[C@@H](O)[C@H](O)[C@@H](CCl)O1 [Example 36, 3-amino-N-(4-((2R,4R,5S,6S)-6-(chloromethyl)-4,5-dihydroxytetrahydro-2H-pyran-2-yl)pyridin-3-yl)-6-phenylpyrazine-2-carboxamide] | 1 nM | 8 nM | 2 nM | – | –
Nc1ncc(-c2ccccc2)nc1C(=O)Nc1cnccc1[C@@H]1C[C@H](O)[C@]2(O)CCC[C@@H]2O1 [Example 186, 3-amino-N-(4-((2S,4S,4aR,7aS)-4,4a-dihydroxyoctahydrocyclopenta[b]pyran-2-yl)pyridin-3-yl)-6-phenylpyrazine-2-carboxamide] | 159 nM | 3190 nM | 610 nM | – | –
CC[C@]1(O)[C@H](O)C[C@H](c2ccncc2NC(=O)c2nc(-c3c(F)cccc3F)ncc2N)O[C@@H]1C [Example 143, 5-amino-2-(2,6-difluorophenyl)-N-(4-((2R,4R,5S,6R)-5-ethyl-4,5-dihydroxy-6-methyltetrahydro-2H-pyran-2-yl)pyridin-3-yl)pyrimidine-4-carboxamide] | 1.3 nM | 3.5 nM | 2.4 nM | – | –
O=C(Nc1cnccc1[C@H]1C[C@@H](O)[C@@]2(O)CCCC[C@H]2O1)c1c[nH]cc(-c2ccccc2)c1=O [Example 178, N-(4-((2R,4R,4aS,8aR)-4,4a-dihydroxyoctahydro-2H-chromen-2-yl)pyridin-3-yl)-4-oxo-5-phenyl-1,4-dihydropyridine-3-carboxamide] | 154 nM | 2180 nM | 124 nM | – | –
C[C@H]1O[C@@H](c2ccncc2NC(=O)c2nc(-c3ccccc3)ncc2N)C[C@@H](O)[C@]1(C)O [Example 32, 5-amino-N-(4-((2R,4R,5S,6R)-4,5-dihydroxy-5,6-dimethyltetrahydro-2H-pyran-2-yl)pyridin-3-yl)-2-phenylpyrimidine-4-carboxamide] | 5 nM | 44 nM | 3 nM | – | –
C=C1[C@@H](O)C[C@@H](c2ccncc2NC(=O)c2nc(-c3ccccc3)cnc2N)OC12CC2 [Example 5, 3-amino-N-(4-((5S,7S)-7-hydroxy-8-methylene-4-oxaspiro[2.5]octan-5-yl)pyridin-3-yl)-6-phenylpyrazine-2-carboxamide] | 25.9 nM | 254 nM | 37.3 nM | – | –
Nc1ncc(-c2ccccc2)nc1C(=O)Nc1cnccc1[C@H]1C[C@@H](O)[C@@]2(O)CCCC[C@H]2O1 [Example 173, 3-amino-N-(4-((2R,4R,4aS,8aR)-4,4a-dihydroxyoctahydro-2H-chromen-2-yl)pyridin-3-yl)-6-phenylpyrazine-2-carboxamide] | 2.2 nM | 15.7 nM | 3.6 nM | – | –
CC[C@H]1O[C@@H](c2ccncc2NC(=O)c2nc(-c3ccccc3)ncc2N)C[C@@H](O)[C@@H]1O [Example 39, 5-amino-N-(4-((2R,4R,5S,6R)-6-ethyl-4,5-dihydroxytetrahydro-2H-pyran-2-yl)pyridin-3-yl)-2-phenylpyrimidine-4-carboxamide] | 4 nM | 40 nM | 4 nM | – | –
